{
  "source": "paper PMC8803738",
  "about": "“Impact of the mouse model and molar amount of injected ligand on the tissue distribution profile of PSMA radioligands” (European Journal of Nuclear Medicine and Molecular Imaging, 2021)",
  "key": {"[1]": {"system": "PC-3 PIP/flu tumor-bearing mice", "test": "Biodistribution in PC-3 PIP/flu tumor-bearing mice", "format": "in vivo, mouse", "conditions": "for AUCTu(0→48 h)-to-AUCKi(0→48 h) ratio: PC-3 PIP model (female mice); for AUCTu(0→48 h)-to-AUCKi(0→48 h) ratio / AUC0→48h, Kidneys / AUC0→48h, PC-3 PIP tumor: average ± SE, non-decay-corrected", "protocol": "Male BALB/c nude mice were subcutaneously inoculated on the right shoulder with LNCaP tumor cells (5 × 10^6 cells in PBS mixed with Matrigel (20 mg/mL, BD Biosciences) at a ratio of 3 to 1 (v/v) to a total volume of 200 μL per mouse). Biodistribution and SPECT/CT imaging studies with both tumor xenograft models were performed when the tumors reached a volume of 100–300 mm^3.\n[^177Lu]Lu-Ibu-DAB-PSMA (5 MBq, 100 µL) and [^177Lu]Lu-PSMA-617 (5 MBq, 100 µL) were diluted in saline containing 0.05% bovine serum albumin (BSA) to prevent adherence of the radioligands to the syringe. The radioligands were intravenously injected at a ligand amount of 0.05 nmol or 1.0 nmol per mouse. The number of mice per setting was commonly n = 3 and, in case of inconclusive results, additional mice up to a total of n = 6 were included. The mice were sacrificed at 4 h, 24 h, or 48 h post injection (p.i.) and selected tissues and organs were collected, weighed, and counted in a γ-counter (Supplementary Material). The data sets were analyzed for significance using a one-way ANOVA with Sidak’s multiple comparison post-test using the GraphPad Prism software (version 8). A p value of < 0.05 was considered statistically significant. Tumor-to-kidney and tumor-to-blood ratios were calculated for all investigated timepoints after injection of each radioligand.\nTime-activity curves over the first 48 h after injection of the radioligands were determined for the PC-3 PIP tumor, the LNCaP tumor, and the kidneys of the corresponding xenograft model based on non-decay-corrected time-dependent biodistribution data obtained at 4 h, 24 h, and 48 h p.i. This allowed calculating the areas under the curve (AUC0→48 h) using the GraphPad Prism software (version 8) (Supplementary Material). The tumor-to-kidney AUC0→48 h ratios were calculated for both xenograft models.\n3. Biodistribution studies\nPurpose: The impact of the tumor mouse model and the injected ligand amount on the biodistribution of [177Lu]Lu-Ibu-DAB-PSMA and [177Lu]Lu-PSMA-617 was investigated.\nMethods: The biodistribution studies were conducted with either PC-3 PIP/flu or LNCaP tumor-bearing mice injected with either 0.05 nmol or 1.0 nmol of radioligand per mouse, whereas the applied activity was kept constant for each setting. The results were decay-corrected and the values indicated as average ± SD obtained from each gr oup of mice (n = 3−6) and listed as percentage of injected activity per gra m tissue [% IA/g].\nResults: The results are listed below (Table S1–S4) and described and discussed in the main article.\nTable S1 Decay -corrected biodistribution data of [177Lu]Lu-Ibu-DAB-PSMA in PC-3 PIP/flu tumor-bearing mice injected with either 0. 05 nmol or 1.0 nmol per mouse. The values are indicated as average ± SD obtained from each group of mice (n = 3−6) and listed as percentage of injected activity per gram […]\nDissection time 4 h p.i. 24 h p.i. 48 h p.i. […]\na Data obtained with 1.0 nmol [177Lu]Lu-Ibu-DAB-PSMA were reproduced from Deberle et al. […]\nradioligands in order to be able to judge the changes in activity uptake in the tumor and kidney s as a consequence of the tumor model and the injected amount of ligand, respectively.\nMethods: T he time-activity curves over the first 48 h after injection were determined for the PC-3 PIP tumor, the LNCaP tumor as well as for the kidneys of each tumor mouse model based on non-decay - corrected time-dependent biodistribution data. For these calculations, the radioligand uptake in the tumors and the kidney s at t = 0 h p.i. was set to 0% IA/g."}, "[2]": {"conditions": "PC-3 PIP model, 4 h p.i., 0.05 nmol"}, "[3]": {"conditions": "PC-3 PIP model, 24 h p.i., 0.05 nmol"}, "[4]": {"conditions": "PC-3 PIP model, 48 h p.i., 0.05 nmol"}},
  "note": "Where two headings read alike, the source gives them in different places.",
  "data": [
    {"smiles": "CC(C)Cc1ccc(C(C)C(=O)NC(CCN)C(=O)NCCCCC(NC(=O)CN2CCN(CC(=O)O)CCN(CC(=O)O)CCN(CC(=O)O)CC2)C(=O)NCC2CCC(C(=O)NC(Cc3ccc4ccccc4c3)C(=O)NCCCCC(NC(=O)NC(CCC(=O)O)C(=O)O)C(=O)O)CC2)cc1", "note": "(centres unmarked) [[^177Lu]Lu-Ibu-DAB-PSMA, metal not drawn]", "values": [
      {"measurement": "Absolute amount of internalized radioligand", "setting": "LNCaP tumor cells; 0.00075 µM", "value": "14–21 % of total added activity"},
      {"measurement": "Internalized fraction", "setting": "LNCaP tumor cells; 4 h", "value": "> 60 % of total uptake"},
      {"measurement": "Cell uptake", "setting": "LNCaP tumor cells; 4 h, 0.00075 µM", "value": "~ 34%"},
      {"measurement": "Cell uptake", "setting": "LNCaP tumor cells; 4 h, 0.0075 µM", "value": "~ 16%"},
      {"measurement": "Cell uptake", "setting": "LNCaP tumor cells; 4 h, 0.025 µM", "value": "~ 6%"},
      {"measurement": "Cell uptake", "setting": "LNCaP tumor cells; 4 h, 0.5 µM", "value": "< 1", "unit": "%"},
      {"measurement": "PC-3 PIP tumor uptake, low vs high ligand amount", "setting": "[1]; 0.05 nmol vs 1.0 nmol, 24 h and 48 h p.i.", "value": "1.5–1.6 fold"},
      {"measurement": "AUCTu(0→48 h)-to-AUCKi(0→48 h) ratio", "setting": "[1]; 0.05 nmol", "value": "3.2 ± 0.5"},
      {"measurement": "AUCTu(0→48 h)-to-AUCKi(0→48 h) ratio", "setting": "[1]; 1.0 nmol", "value": "5.6 ± 0.7"},
      {"measurement": "AUC0→48h, Kidneys", "setting": "[1]; PC-3 PIP model, 0.05 nmol", "value": "945 ± 97", "unit": "% IA/g*h"},
      {"measurement": "AUC0→48h, PC-3 PIP tumor", "setting": "[1]; PC-3 PIP model, 0.05 nmol", "value": "3027 ± 206", "unit": "% IA/g*h"},
      {"measurement": "Increase of tumor-to-kidney AUC0→48 h ratio for high vs low molar amount of injected ligand", "setting": "[1]; PC-3 PIP model, 1.0 nmol vs 0.05 nmol", "value": 1.8, "unit": "fold"},
      {"measurement": "AUC0→48h, Kidneys", "setting": "[1]; PC-3 PIP model, 1.0 nmol", "value": "388 ± 23", "unit": "% IA/g*h"},
      {"measurement": "AUC0→48h, PC-3 PIP tumor", "setting": "[1]; PC-3 PIP model, 1.0 nmol", "value": "2166 ± 153", "unit": "% IA/g*h"},
      {"measurement": "Tissue distribution, Blood", "setting": "[1]; [2]", "value": "1.3 ± 0.3", "unit": "% IA/g"},
      {"measurement": "Tissue distribution, Bone", "setting": "[1]; [2]", "value": "0.29 ± 0.06", "unit": "% IA/g"},
      {"measurement": "Tissue distribution, Heart", "setting": "[1]; [2]", "value": "0.54 ± 0.12", "unit": "% IA/g"},
      {"measurement": "Tissue distribution, Intestines", "setting": "[1]; [2]", "value": "0.29 ± 0.05", "unit": "% IA/g"},
      {"measurement": "Tissue distribution, Kidneys", "setting": "[1]; [2]", "value": "69 ± 10", "unit": "% IA/g"},
      {"measurement": "Tissue distribution, Liver", "setting": "[1]; [2]", "value": "1.1 ± 0.1", "unit": "% IA/g"},
      {"measurement": "Tissue distribution, Lung", "setting": "[1]; [2]", "value": "1.3 ± 0.3", "unit": "% IA/g"},
      {"measurement": "Tissue distribution, Muscle", "setting": "[1]; [2]", "value": "0.22 ± 0.06", "unit": "% IA/g"},
      {"measurement": "Tissue distribution, PC-3 PIP tumor", "setting": "[1]; [2]", "value": "81 ± 4", "unit": "% IA/g"},
      {"measurement": "Tissue distribution, PC-3 flu tumor", "setting": "[1]; [2]", "value": "0.67 ± 0.10", "unit": "% IA/g"},
      {"measurement": "Tissue distribution, Salivary glands", "setting": "[1]; [2]", "value": "0.69 ± 0.18", "unit": "% IA/g"},
      {"measurement": "Tissue distribution, Spleen", "setting": "[1]; [2]", "value": "1.9 ± 0.4", "unit": "% IA/g"},
      {"measurement": "Tissue distribution, Stomach", "setting": "[1]; [2]", "value": "0.33 ± 0.09", "unit": "% IA/g"},
      {"measurement": "Tumor-to-blood ratio", "setting": "[1]; [2]", "value": "65 ± 20"},
      {"measurement": "Tumor-to-kidney ratio", "setting": "[1]; [2]", "value": "1.2 ± 0.2"},
      {"measurement": "Tumor-to-liver ratio", "setting": "[1]; [2]", "value": "74 ± 8"},
      {"measurement": "Tissue distribution, Blood", "setting": "[1]; [3]", "value": "0.23 ± 0.03", "unit": "% IA/g"},
      {"measurement": "Tissue distribution, Bone", "setting": "[1]; [3]", "value": "0.13 ± 0.04", "unit": "% IA/g"},
      {"measurement": "Tissue distribution, Heart", "setting": "[1]; [3]", "value": "0.15 ± 0.02", "unit": "% IA/g"},
      {"measurement": "Tissue distribution, Intestines", "setting": "[1]; [3]", "value": "0.11 ± 0.03", "unit": "% IA/g"},
      {"measurement": "Tissue distribution, Kidneys", "setting": "[1]; [3]", "value": "5.5 ± 1.0", "unit": "% IA/g"},
      {"measurement": "Tissue distribution, Liver", "setting": "[1]; [3]", "value": "0.54 ± 0.13", "unit": "% IA/g"},
      {"measurement": "Tissue distribution, Lung", "setting": "[1]; [3]", "value": "0.27 ± 0.04", "unit": "% IA/g"},
      {"measurement": "Tissue distribution, Muscle", "setting": "[1]; [3]", "value": "< 0.10", "unit": "% IA/g"},
      {"measurement": "Tissue distribution, PC-3 PIP tumor", "setting": "[1]; [3]", "value": "78 ± 14", "unit": "% IA/g"},
      {"measurement": "Tissue distribution, PC-3 flu tumor", "setting": "[1]; [3]", "value": "0.31 ± 0.05", "unit": "% IA/g"},
      {"measurement": "Tissue distribution, Salivary glands", "setting": "[1]; [3]", "value": "0.21 ± 0.02", "unit": "% IA/g"},
      {"measurement": "Tissue distribution, Spleen", "setting": "[1]; [3]", "value": "0.42 ± 0.09", "unit": "% IA/g"},
      {"measurement": "Tissue distribution, Stomach", "setting": "[1]; [3]", "value": "0.11 ± 0.02", "unit": "% IA/g"},
      {"measurement": "Tumor-to-blood ratio", "setting": "[1]; [3]", "value": "341 ± 48"},
      {"measurement": "Tumor-to-kidney ratio", "setting": "[1]; [3]", "value": "14 ± 2"},
      {"measurement": "Tumor-to-liver ratio", "setting": "[1]; [3]", "value": "149 ± 34"},
      {"measurement": "Tissue distribution, Blood", "setting": "[1]; [4]", "value": "0.13 ± 0.03", "unit": "% IA/g"},
      {"measurement": "Tissue distribution, Bone", "setting": "[1]; [4]", "value": "< 0.10", "unit": "% IA/g"},
      {"measurement": "Tissue distribution, Heart", "setting": "[1]; [4]", "value": "< 0.10", "unit": "% IA/g"},
      {"measurement": "Tissue distribution, Intestines", "setting": "[1]; [4]", "value": "< 0.10", "unit": "% IA/g"},
      {"measurement": "Tissue distribution, Kidneys", "setting": "[1]; [4]", "value": "2.3 ± 0.4", "unit": "% IA/g"},
      {"measurement": "Tissue distribution, Liver", "setting": "[1]; [4]", "value": "0.28 ± 0.03", "unit": "% IA/g"},
      {"measurement": "Tissue distribution, Lung", "setting": "[1]; [4]", "value": "0.18 ± 0.04", "unit": "% IA/g"},
      {"measurement": "Tissue distribution, Muscle", "setting": "[1]; [4]", "value": "< 0.10", "unit": "% IA/g"},
      {"measurement": "Tissue distribution, PC-3 PIP tumor", "setting": "[1]; [4]", "value": "58 ± 9", "unit": "% IA/g"},
      {"measurement": "Tissue distribution, PC-3 flu tumor", "setting": "[1]; [4]", "value": "0.17 ± 0.01", "unit": "% IA/g"},
      {"measurement": "Tissue distribution, Salivary glands", "setting": "[1]; [4]", "value": "0.11 ± 0.02", "unit": "% IA/g"},
      {"measurement": "Tissue distribution, Spleen", "setting": "[1]; [4]", "value": "0.25 ± 0.05", "unit": "% IA/g"},
      {"measurement": "Tissue distribution, Stomach", "setting": "[1]; [4]", "value": "0.12 ± 0.08", "unit": "% IA/g"},
      {"measurement": "Tumor-to-blood ratio", "setting": "[1]; [4]", "value": "445 ± 51"},
      {"measurement": "Tumor-to-kidney ratio", "setting": "[1]; [4]", "value": "26 ± 2"},
      {"measurement": "Tumor-to-liver ratio", "setting": "[1]; [4]", "value": "205 ± 10"}
    ]}
  ]
}
